Measurements taken from US9056865B2, “Pyridine-2-derivatives as smoothened receptor modulators” (Pfizer Inc., priority 2010, dated 2015).

How the values were obtained:
human Smo = human Smo (Homo sapiens (Human), UniProt Q99835); experiment: Smo radioligand competition binding assay; details: for inhibition at 0.05 µM: 0.05 μM test compound, read-out: Smo % inh. @ 0.05 μM
Procedure, shortened: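 Membranes from HEK293 cells expressing surface human Smo 181-781 (40 μg protein/well) incubated 2 h at room temperature with test compound and tritiated Smo antagonist (3 nM), pH 7.5 Tris buffer; filtration and scintillation counting. Non-specific binding defined with 30 μM cold antagonist; IC50 from four-parameter sigmoidal fit.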

Gli-Luc/MEF cells = experiment: Gli-Luc/MEF assay; type: cell-based, mouse; details: Mus musculus, MEF; Shh-stimulated luciferase, 48 hours
Procedure, shortened: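 Shh-stimulated luciferase readout (Bright-Glo) after 48 h, 37 °C, 5% CO2, used to derive IC50 of inhibition. Gli-Luc transgenic mouse MEFs received test compounds at final […] in 3-fold dilutions, with recombinant mouse Shh added immediately at final 2 μg/mL.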

Chain of human Smo (Q99835 181-787): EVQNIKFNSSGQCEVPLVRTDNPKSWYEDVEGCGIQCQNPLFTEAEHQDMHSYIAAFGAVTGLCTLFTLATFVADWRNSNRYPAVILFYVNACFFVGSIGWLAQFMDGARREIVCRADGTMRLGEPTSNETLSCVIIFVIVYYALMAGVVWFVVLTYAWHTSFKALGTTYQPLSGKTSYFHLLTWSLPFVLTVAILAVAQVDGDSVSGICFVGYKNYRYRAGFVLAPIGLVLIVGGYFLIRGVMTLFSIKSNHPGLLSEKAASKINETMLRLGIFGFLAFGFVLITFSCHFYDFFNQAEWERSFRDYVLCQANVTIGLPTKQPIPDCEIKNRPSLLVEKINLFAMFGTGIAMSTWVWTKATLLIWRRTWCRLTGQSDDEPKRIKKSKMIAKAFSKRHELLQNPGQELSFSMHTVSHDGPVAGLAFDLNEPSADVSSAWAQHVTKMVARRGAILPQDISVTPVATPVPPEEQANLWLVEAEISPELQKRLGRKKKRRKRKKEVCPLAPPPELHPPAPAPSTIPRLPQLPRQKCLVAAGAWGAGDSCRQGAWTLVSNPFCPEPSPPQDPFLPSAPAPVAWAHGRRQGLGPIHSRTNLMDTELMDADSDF

Cc1cccnc1-c1cc(N2CCC(C(=O)NC[C@H]3CCCO3)CC2)ncc1Cl [Example A-63, 1-(5′-chloro-3-methyl-2,4′-bipyridin-2′-yl)-N-[(2R)-tetrahydrofuran-2-ylmethyl]piperidine-4-carboxamide]
IC50 (human Smo): 137 nM
inhibition at 0.05 µM (human Smo): 82.5%
IC50 (Gli-Luc/MEF cells): 83.6 nM

Cc1cccnc1-c1cc(N2CCC(C(=O)NCC3(O)CCC3)CC2)ncc1Cl [Example A-64, 1-(5′-chloro-3-methyl-2,4′-bipyridin-2′-yl)-N-[(1-hydroxycyclobutyl)methyl]piperidine-4-carboxamide]
IC50 (human Smo): 157 nM
inhibition at 0.05 µM (human Smo): 78.1%
IC50 (Gli-Luc/MEF cells): 109 nM

Cc1cccnc1-c1cc(N2CCC(C(=O)N3CCc4c(c(C(C)C)nn4C)C3)CC2)ncc1Cl [Example A-65, 5′-chloro-2′-{4-[(3-isopropyl-1-methyl-1,4,6,7-tetrahydro-5H-pyrazolo[4,3-c]pyridin-5-yl)carbonyl]piperidin-1-yl}-3-methyl-2,4′-bipyridine]
IC50 (human Smo): 145 nM
inhibition at 0.05 µM (human Smo): 78.5%
IC50 (Gli-Luc/MEF cells): 124 nM

Cc1cccnc1-c1cc(N2CCC(C(=O)N[C@@H]3CC[C@@H](O)C3)CC2)ncc1Cl [Example A-66, 1-(5′-chloro-3-methyl-2,4′-bipyridin-2′-yl)-N-[(1R,3R)-3-hydroxycyclopentyl]piperidine-4-carboxamide]
IC50 (human Smo): 162 nM
inhibition at 0.05 µM (human Smo): 81.7%
IC50 (Gli-Luc/MEF cells): 94 nM

Cc1cccnc1-c1cc(N2CCC(C(=O)NCCS(C)(=O)=O)CC2)ncc1Cl [Example A-67, 1-(5′-chloro-3-methyl-2,4′-bipyridin-2′-yl)-N-[2-(methylsulfonyl)ethyl]piperidine-4-carboxamide]
IC50 (human Smo): 217 nM
inhibition at 0.05 µM (human Smo): 70.4%
IC50 (Gli-Luc/MEF cells): 164 nM

Cc1cccnc1-c1cc(N2CCC(C(=O)N[C@@H]3CS(=O)(=O)C[C@H]3O)CC2)ncc1Cl [Example A-68, 1-(5′-chloro-3-methyl-2,4′-bipyridin-2′-yl)-N-[(3S,4S)-4-hydroxy-1,1-dioxidotetrahydro-3-thienyl]piperidine-4-carboxamide]
IC50 (human Smo): 120 nM
inhibition at 0.05 µM (human Smo): 88.8%
IC50 (Gli-Luc/MEF cells): 54.4 nM

Cc1cccnc1-c1cc(N2CC(C(=O)N(C)[C@@H]3CS(=O)(=O)C[C@H]3O)C2)ncc1Cl [Example A-69, 1-(5′-chloro-3-methyl-2,4′-bipyridin-2′-yl)-N-[(3S,4S)-4-hydroxy-1,1-dioxidotetrahydro-3-thienyl]-N-methylazetidine-3-carboxamide]
IC50 (human Smo): 189 nM
inhibition at 0.05 µM (human Smo): 74.4%
IC50 (Gli-Luc/MEF cells): 148 nM

Cc1cccnc1-c1cc(N2CCC(C(=O)N(C)[C@@H]3CS(=O)(=O)C[C@H]3O)CC2)ncc1Cl [Example A-70, 1-(5′-chloro-3-methyl-2,4′-bipyridin-2′-yl)-N-[(3S,4S)-4-hydroxy-1,1-dioxidotetrahydro-3-thienyl]-N-methylpiperidine-4-carboxamide]
IC50 (human Smo): 42.4 nM
inhibition at 0.05 µM (human Smo): 105%
IC50 (Gli-Luc/MEF cells): 27.3 nM

Cc1cccnc1-c1cc(N2CCC(C(=O)NC3CCCCC3O)CC2)ncc1Cl (stereo not drawn) [Example A-72, 1-(5′-chloro-3-methyl-2,4′-bipyridin-2′-yl)-N-(2-hydroxycyclohexyl)piperidine-4-carboxamide]
IC50 (human Smo): 28.3 nM
inhibition at 0.05 µM (human Smo): 96.3%
IC50 (Gli-Luc/MEF cells): 22.5 nM

Cc1cccnc1-c1cc(N2CCC(C(=O)NCCc3nc4cccnc4n3C)CC2)ncc1Cl [Example A-73, 1-(5′-chloro-3-methyl-2,4′-bipyridin-2′-yl)-N-[2-(3-methyl-3H-imidazo[4,5-b]pyridin-2-yl)ethyl]piperidine-4-carboxamide]
IC50 (human Smo): 154 nM
inhibition at 0.05 µM (human Smo): 76.1%
IC50 (Gli-Luc/MEF cells): 55.8 nM

Cc1cccnc1-c1cc(N2CCC(C(=O)NCC3CN(CC4CC4)C(=O)CO3)CC2)ncc1Cl (stereo not drawn) [Example A-74, 1-(5′-chloro-3-methyl-2,4′-bipyridin-2′-yl)-N-{[4-(cyclopropylmethyl)-5-oxomorpholin-2-yl]methyl}piperidine-4-carboxamide]
IC50 (human Smo): 25.5 nM
inhibition at 0.05 µM (human Smo): 97.8%
IC50 (Gli-Luc/MEF cells): 23 nM

Cc1cccnc1-c1cc(N2CCC(C(=O)Nc3cccc(CO)n3)CC2)ncc1Cl [Example A-75, 1-(5′-chloro-3-methyl-2,4′-bipyridin-2′-yl)-N-[6-(hydroxymethyl)pyridin-2-yl]piperidine-4-carboxamide]
IC50 (human Smo): 93.3 nM
inhibition at 0.05 µM (human Smo): 88.6%
IC50 (Gli-Luc/MEF cells): 47.9 nM

Cc1cccnc1-c1cc(N2CCC(C(=O)NC3(CO)CCCC3)CC2)ncc1Cl [Example A-76, 1-(5′-chloro-3-methyl-2,4′-bipyridin-2′-yl)-N-[1-(hydroxymethyl)cyclopentyl]piperidine-4-carboxamide]
IC50 (human Smo): 25.8 nM
inhibition at 0.05 µM (human Smo): 91.6%
IC50 (Gli-Luc/MEF cells): 18.3 nM

Cc1cccnc1-c1cc(N2CCC(C(=O)NC3CCOCC3)CC2)ncc1Cl [Example A-77, 1-(5′-chloro-3-methyl-2,4′-bipyridin-2′-yl)-N-(tetrahydro-2H-pyran-4-yl)piperidine-4-carboxamide]
IC50 (human Smo): 52.5 nM
inhibition at 0.05 µM (human Smo): 87.7%
IC50 (Gli-Luc/MEF cells): 48.4 nM

Cc1cccnc1-c1cc(N2CCC(C(=O)NC3CCOC3)CC2)ncc1Cl (stereo not drawn) [Example A-78, 1-(5′-chloro-3-methyl-2,4′-bipyridin-2′-yl)-N-(tetrahydrofuran-3-yl)piperidine-4-carboxamide]
IC50 (human Smo): 295 nM
inhibition at 0.05 µM (human Smo): 70.1%
IC50 (Gli-Luc/MEF cells): 87.3 nM

COc1ccccc1CNC(=O)C1CCN(c2cc(-c3ncccc3C)c(Cl)cn2)CC1 [Example A-79, 1-(5′-chloro-3-methyl-2,4′-bipyridin-2′-yl)-N-(2-methoxybenzyl)piperidine-4-carboxamide]
IC50 (human Smo): 161 nM
inhibition at 0.05 µM (human Smo): 78.4%
IC50 (Gli-Luc/MEF cells): 30.5 nM

Cc1cccnc1-c1cc(N2CCC(C(=O)NC3CCS(=O)(=O)CC3)CC2)ncc1Cl [Example A-80, 1-(5′-chloro-3-methyl-2,4′-bipyridin-2′-yl)-N-(1,1-dioxidotetrahydro-2H-thiopyran-4-yl)piperidine-4-carboxamide]
IC50 (human Smo): 33.6 nM
inhibition at 0.05 µM (human Smo): 101%
IC50 (Gli-Luc/MEF cells): 16.5 nM

Cc1cccnc1-c1cc(N2CCC(C(=O)N[C@@H]3CCCC[C@H]3O)CC2)ncc1Cl [Example A-81, 1-(5′-chloro-3-methyl-2,4′-bipyridin-2′-yl)-N-[(1R,2R)-2-hydroxycyclohexyl]piperidine-4-carboxamide]
IC50 (human Smo): 32.6 nM
inhibition at 0.05 µM (human Smo): 97.9%
IC50 (Gli-Luc/MEF cells): 15.7 nM

Cc1cccnc1-c1cc(N2CCC(C(=O)N3CCN(c4ccc(O)nn4)CC3)CC2)ncc1Cl [Example A-82, 6-(4-{[1-(5′-chloro-3-methyl-2,4′-bipyridin-2′-yl)piperidin-4-yl]carbonyl}piperazin-1-yl)pyridazin-3-ol]
IC50 (human Smo): 39.2 nM
inhibition at 0.05 µM (human Smo): 92.6%
IC50 (Gli-Luc/MEF cells): 38.8 nM

Cc1cccnc1-c1cc(N2CCC(C(=O)NCC3CCCCO3)CC2)ncc1Cl (stereo not drawn) [Example A-83, 1-(5′-chloro-3-methyl-2,4′-bipyridin-2′-yl)-N-(tetrahydro-2H-pyran-2-ylmethyl)piperidine-4-carboxamide]
IC50 (human Smo): 138 nM
inhibition at 0.05 µM (human Smo): 78.9%
IC50 (Gli-Luc/MEF cells): 48.5 nM

Cc1cccnc1-c1cc(N2CCC(C(=O)NC3CCOC4(CCN(C)CC4)C3)CC2)ncc1Cl (stereo not drawn) [Example A-84, 1-(5′-chloro-3-methyl-2,4′-bipyridin-2′-yl)-N-(9-methyl-1-oxa-9-azaspiro[5.5]undec-4-yl)piperidine-4-carboxamide]
IC50 (human Smo): 283 nM
inhibition at 0.05 µM (human Smo): 71.5%
IC50 (Gli-Luc/MEF cells): 92 nM

Cc1cccnc1-c1cc(N2CCC(C(=O)N3CCCC[C@H]3CO)CC2)ncc1Cl [Example A-85, [(2S)-1-{[1-(5′-chloro-3-methyl-2,4′-bipyridin-2′-yl)piperidin-4-yl]carbonyl}piperidin-2-yl]methanol]
IC50 (human Smo): 42.4 nM
inhibition at 0.05 µM (human Smo): 92.7%
IC50 (Gli-Luc/MEF cells): 116 nM

Cc1cccnc1-c1cc(N2CCC(C(=O)N3CCCC(O)C3CO)CC2)ncc1Cl (stereo not drawn) [Example A-86, 1-{[1-(5′-chloro-3-methyl-2,4′-bipyridin-2′-yl)piperidin-4-yl]carbonyl}-2-(hydroxymethyl)piperidin-3-ol]
IC50 (human Smo): 112 nM
inhibition at 0.05 µM (human Smo): 81.5%
IC50 (Gli-Luc/MEF cells): 116 nM

Cc1cccnc1-c1cc(N2CCC(C(=O)NCCc3c[nH]cn3)CC2)ncc1Cl [Example A-87, 1-(5′-chloro-3-methyl-2,4′-bipyridin-2′-yl)-N-[2-(1H-imidazol-4-yl)ethyl]piperidine-4-carboxamide]
IC50 (human Smo): 134 nM
inhibition at 0.05 µM (human Smo): 81.8%
IC50 (Gli-Luc/MEF cells): 123 nM

Cc1cccnc1-c1cc(N2CCC(C(=O)Nc3cnn(C)n3)CC2)ncc1Cl [Example A-88, 1-(5′-chloro-3-methyl-2,4′-bipyridin-2′-yl)-N-(2-methyl-2H-1,2,3-triazol-4-yl)piperidine-4-carboxamide]
IC50 (human Smo): 49 nM
inhibition at 0.05 µM (human Smo): 85.6%
IC50 (Gli-Luc/MEF cells): 53 nM

Cc1cccnc1-c1cc(N2CCC(C(=O)N[C@H]3CC[C@H](CO)CC3)CC2)ncc1Cl [Example A-89, 1-(5′-chloro-3-methyl-2,4′-bipyridin-2′-yl)-N-[trans-4-(hydroxymethyl)cyclohexyl]piperidine-4-carboxamide]
IC50 (human Smo): 28.5 nM
inhibition at 0.05 µM (human Smo): 94.6%
IC50 (Gli-Luc/MEF cells): 24.4 nM

CC(C)(O)CC(=O)N1CCN(c2ccc(Cl)c(-c3ccccn3)n2)CC1 [Example A-90, 4-[4-(3-chloro-2,2′-bipyridin-6-yl)piperazin-1-yl]-2-methyl-4-oxobutan-2-ol]
IC50 (human Smo): 111 nM
inhibition at 0.05 µM (human Smo): 82.5%
IC50 (Gli-Luc/MEF cells): 66.9 nM

NS(=O)(=O)CC1CCN(c2ccc(Cl)c(-c3ccccn3)n2)CC1 [Example A-91, 1-[1-(3-chloro-2,2′-bipyridin-6-yl)piperidin-4-yl]methanesulfonamide]
IC50 (human Smo): 26.3 nM
inhibition at 0.05 µM (human Smo): 92.7%
IC50 (Gli-Luc/MEF cells): 28.6 nM
